The record followed here is US20060211698A1, “Bicyclic heteroaryl derivatives for treating viruses” (Genelabs, Inc., priority 2005, published 2006).

The structures appear in SMILES notation.

In the experiment the target is T1, HCV-NS5b (Hepatitis C virus genotype 1b, UniProt Q9WMX2).
T1 construct: The cloned fragment was missing the C terminus 21 amino acid residues; (His)6 (C); made in house; host or cells: XL-1 cells (E. coli)
In words: HCV-NS5b Enzyme Assay. The class given is biochemical. The note with it: 1 μM test compound; incorporation of [3H]-UTP, 37° C., 2 hours. The method in brief:
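The NS5B construct lacks its C-terminal 21 residues, carries a C-terminal His6 tag and was expressed in E. coli. [^3H]-UTP incorporation on a biotinylated HCV heteropolymeric template (10 ng/μL) with 10 μM each NTP, pH 7.5, 5 mM MgCl2 and 5% DMSO ran 2 h at 37° C and was read by SPA scintillation. IC50s came from 10-point 2-fold series starting at 50 or 2 μM.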
In turn, `O=C(O)c1ccc2c(C3CCCCC3)c(-c3ccc4ncc(-c5ccccc5)nc4c3)n(CC(=O)N3CCOCC3)c2c1` [Compound 329, 3-Cyclohexyl-1-(2-morpholin-4-yl-2-oxo-ethyl)-2-(3-phenyl-quinoxalin-6-yl)-1H-indole-6-carboxylic acid] came in with an inhibition at 1 µM of 99.8%.

In turn, `O=C(O)c1ccc2c(C3CCCCC3)c(-c3ccc4nc(-c5ccccc5)cnc4c3)n(CC(=O)N3CCOCC3)c2c1` [Compound 330, 3-Cyclohexyl-1-(2-morpholin-4-yl-2-oxo-ethyl)-2-(2-phenyl-quinoxalin-6-yl)-1H-indole-6-carboxylic acid] had an inhibition at 1 µM of 96.8%.

Turning to `O=C(O)c1ccc2c(C3CCCCC3)c(-c3ccc4nc(-c5cncs5)ccc4c3)n(CC(=O)N3CCOCC3)c2c1` [Compound 331, 3-Cyclohexyl-1-(2-morpholin-4-yl-2-oxo-ethyl)-2-(2-thiazol-5-yl-quinolin-6-yl)-1H-indole-6-carboxylic acid], the inhibition at 1 µM is 97%.

With `O=C(O)c1ccc2c(C3CCCCC3)c(-c3ccc(-c4ccccc4)cc3)n(CC(=O)N3CCOCC3)c2c1` [Compound 332, 2-Biphenyl-4-yl-3-cyclohexyl-1-(2-morpholin-4-yl-2-oxo-ethyl)-1H-indole-6-carboxylic acid], 1 µM produced 100% inhibition.

Compound `Cc1nc(C)c(-c2ccc3cc(-c4[nH]c5cc(C(=O)O)ccc5c4C4CCCCC4)ccc3n2)s1` [Compound 333, 3-Cyclohexyl-2-[2-(2,4-dimethyl-thiazol-5-yl)-quinolin-6-yl]-1H-indole-6-carboxylic acid] gave an inhibition at 1 µM of 95.1%.

`Cc1nc(C)c(-c2ccc3cc(-c4[nH]c5c(C)c(C(=O)O)ccc5c4C4CCCCC4)ccc3n2)s1` [Compound 334, 3-Cyclohexyl-2-[2-(2,4-dimethyl-thiazol-5-yl)-quinolin-6-yl]-7-methyl-1H-indole-6-carboxylic acid] registered an inhibition at 1 µM of 86.9%.

The term inhibition denotes how much of the control response was suppressed. Read a high inhibition as strong suppression.
